US20240238295A1, “METHOD FOR MODULATING NEUROPATHIES” (priority 2021, published 2024)
Several values for one entry are separate records, joined by “and”; a condition that tells them apart may be missing. Equal values may be shown once.

Assays:
Format in all cases: in vivo, rhesus monkey (Macaca mulatta)
[1] = system: sural nerve of rhesus monkeys with spontaneous diabetic peripheral neuropathy; experiment: Nerve electromyogram: sural sensory nerve conduction velocity, spontaneous DPN model; details: for Change value, sural sensory nerve conduction velocity, Mean ± SD / D58 of administration, sural sensory nerve conduction velocity, Mean ± SD / Baseline value, sural sensory nerve conduction velocity, Mean ± SD: group mean over abnormal sural nerves; for Change value, sural sensory nerve conduction velocity, Mean ± SD / Change value, sural sensory nerve conduction velocity: D58 minus baseline; for D58 of administration, sural sensory nerve conduction velocity, Mean ± SD / D58 of administration, sural sensory nerve conduction velocity: Day 58 of administration; for Baseline value, sural sensory nerve conduction velocity, Mean ± SD: before administration; for Change value, sural sensory nerve conduction velocity / D58 of administration, sural sensory nerve conduction velocity: individual animal; as to Change value, sural sensory nerve conduction velocity, Mean ± SD: test concentration or dose not given here; as to Change value, sural sensory nerve conduction velocity: test concentration or dose not given here; as to D58 of administration, sural sensory nerve conduction velocity, Mean ± SD: test concentration or dose not given here; as to D58 of administration, sural sensory nerve conduction velocity: test concentration or dose not given here
[2] = system: rhesus monkeys with spontaneous diabetic peripheral neuropathy; experiment: Nerve electromyogram: sensory nerve conduction velocity (SCV) of abnormal nerves, spontaneous DPN model; details: for Variation value, sensory nerve conduction velocity, Mean ± SD / Administration D58, sensory nerve conduction velocity, Mean ± SD / Baseline value, sensory nerve conduction velocity, Mean ± SD: group mean over all abnormal nerves; for Variation value, sensory nerve conduction velocity, Mean ± SD / Variation value, sensory nerve conduction velocity: D58 minus baseline; for Administration D58, sensory nerve conduction velocity, Mean ± SD / Administration D58, sensory nerve conduction velocity: Day 58 of administration; for Baseline value, sensory nerve conduction velocity, Mean ± SD / Baseline value, sensory nerve conduction velocity: before administration; for Variation value, sensory nerve conduction velocity / Administration D58, sensory nerve conduction velocity / Baseline value, sensory nerve conduction velocity: individual animal; as to Administration D58, sensory nerve conduction velocity, Mean ± SD: test concentration or dose not given here; as to Administration D58, sensory nerve conduction velocity: test concentration or dose not given here; as to Variation value, sensory nerve conduction velocity, Mean ± SD: test concentration or dose not given here; as to Variation value, sensory nerve conduction velocity: test concentration or dose not given here
[3] = system: retinal ganglion cells (RGC); experiment: Brn3a immunohistochemistry retinal ganglion cell count, retinal ischemia/reperfusion (I/R) model; details: for average loss of RGC cells: I/R eyes vs contralateral OS eye, Day 63 after retinal I/R, oral 63 days; for protection on retinal ganglion cells: retinal I/R, 63 days of treatment; as to average loss of RGC cells: test concentration or dose not given here
[4] = system: retinal ischemia/reperfusion (I/R) rhesus monkey model; experiment: OCT Global mean thickness of retinal nerve fiber layer (RNFL), retinal I/R model; details: change vs before modeling; also: test concentration or dose not given here
[5] = system: retinal ischemia/reperfusion (I/R) rhesus monkey model; experiment: OCT mean thickness of 9-room retinal EDTRS area, retinal I/R model; details: change vs before modeling; also: test concentration or dose not given here
[6] = spontaneous DPN, 58 days, P>0.05 vs placebo group
[7] = OS (non-ischemic contralateral eye), Day 35
[8] = OS (non-ischemic contralateral eye), Day 63
[9] = OS (non-ischemic contralateral eye), Day 7
[10] = OS (non-ischemic contralateral eye), Day 21

Q: What does the source list for CC(/C=C1\SC(=S)N(CC(=O)O)C1=O)=C\c1ccccc1 [Epalrestat, epalrestat]?
A: Change value, sural sensory nerve conduction velocity, Mean ± SD [1]: 3.2 ± 3.9 m/s; D58 of administration, sural sensory nerve conduction velocity, Mean ± SD [1]: 42.1 ± 2.1 m/s; Baseline value, sural sensory nerve conduction velocity, Mean ± SD [1]: 38.9 ± 3.2 m/s; Change value, sural sensory nerve conduction velocity ([1]; left sural nerve (abnormal)): 6.1 m/s and −1.1 m/s and 5.6 m/s; D58 of administration, sural sensory nerve conduction velocity ([1]; left sural nerve (abnormal)): 41.4 m/s and 39.3 m/s and 45.2 m/s; Change value, sural sensory nerve conduction velocity ([1]; right sural nerve (abnormal)): 9.3 m/s and 0.4 m/s and 2.8 m/s and −0.6 m/s; D58 of administration, sural sensory nerve conduction velocity ([1]; right sural nerve (abnormal)): 43.9 m/s and 41.3 m/s and 39.6 m/s and 43.8 m/s; average increase in sensory nerve conduction velocity (SCV) of abnormal sural nerves vs baseline ([1]; spontaneous DPN, 58 days of administration): 3.2±3.9 m/s; nerves determined to be effectively improved in conduction velocity (of abnormal sural nerves) ([1]; spontaneous DPN, 58 days, effective = return to normal or increase by 2-5 m/s or more): 4/7; Variation value, sensory nerve conduction velocity, Mean ± SD [2]: 4.2 ± 4.0 m/s; Administration D58, sensory nerve conduction velocity, Mean ± SD [2]: 43.6 ± 7.3 m/s; Baseline value, sensory nerve conduction velocity, Mean ± SD [2]: 38.8 ± 4.7 m/s; Variation value, sensory nerve conduction velocity ([2]; left median nerve (abnormal)): 1.5 m/s and 8.6 m/s; Administration D58, sensory nerve conduction velocity ([2]; left median nerve (abnormal)): 40 m/s and 51.2 m/s; Baseline value, sensory nerve conduction velocity ([2]; left median nerve (abnormal)): 38.5 m/s and 42.6 m/s; Variation value, sensory nerve conduction velocity ([2]; left sural nerve (abnormal)): −1.1 m/s and 5.6 m/s and 6.1 m/s; Baseline value, sensory nerve conduction velocity ([2]; left sural nerve (abnormal)): 40.4 m/s and 39.6 m/s and 35.3 m/s; Variation value, sensory nerve conduction velocity ([2]; left ulnar nerve (abnormal)): 8.3 m/s; Administration D58, sensory nerve conduction velocity ([2]; left ulnar nerve (abnormal)): 50.7 m/s; Baseline value, sensory nerve conduction velocity ([2]; left ulnar nerve (abnormal)): 42.4 m/s; Variation value, sensory nerve conduction velocity ([2]; right median nerve (abnormal)): −0.7 m/s and 4.8 m/s; Administration D58, sensory nerve conduction velocity ([2]; right median nerve (abnormal)): 25.1 m/s and 48.2 m/s; Baseline value, sensory nerve conduction velocity ([2]; right median nerve (abnormal)): 25.8 m/s and 43.4 m/s; Variation value, sensory nerve conduction velocity ([2]; right sural nerve (abnormal)): 0.4 m/s and 2.8 m/s and −0.6 m/s and 9.3 m/s; Baseline value, sensory nerve conduction velocity ([2]; right sural nerve (abnormal)): 40.9 m/s and 36.8 m/s and 44.4 m/s and 34.6 m/s; Variation value, sensory nerve conduction velocity ([2]; right ulnar nerve (abnormal)): 9.2 m/s; Administration D58, sensory nerve conduction velocity ([2]; right ulnar nerve (abnormal)): 48.4 m/s; Baseline value, sensory nerve conduction velocity ([2]; right ulnar nerve (abnormal)): 39.2 m/s; mean increase in SCV of nerves with abnormal conduction velocities vs baseline ([2]; spontaneous DPN, administered for 58 days): 4.2±4.0 m/s

Q: How did the “Change value, sural sensory nerve conduction velocity, Mean ± SD” value [1] turn out when CCCN[C@H]1CCc2nc(N)sc2C1 [PMP, (S)—N6-propyl-4,5,6,7-tetrahydro-1,3-benzothiazole-2,6-diamine] was run?
A: 0.9 ± 1.1 m/s

Q: And the “D58 of administration, sural sensory nerve conduction velocity, Mean ± SD” value [1]?
A: 40.8 ± 1.0 m/s

Q: And the “Baseline value, sural sensory nerve conduction velocity, Mean ± SD” value [1]?
A: 39.8 ± 1.0 m/s

Q: And the “Change value, sural sensory nerve conduction velocity” value ([1]; left sural nerve (abnormal))?
A: −0.3 m/s and 1.9 m/s

Q: What about the “D58 of administration, sural sensory nerve conduction velocity” value ([1]; left sural nerve (abnormal)) of the same compound?
A: 40.2 m/s and 40.4 m/s

Q: What about the “Change value, sural sensory nerve conduction velocity” value ([1]; right sural nerve (abnormal)) of the same compound?
A: −0.4 m/s and 2.1 m/s and 1.4 m/s

Q: And the “D58 of administration, sural sensory nerve conduction velocity” value ([1]; right sural nerve (abnormal))?
A: 39.6 m/s and 41.1 m/s and 42.6 m/s

Q: And the “improvement in abnormal sural sensory nerve conduction velocity compared with the placebo group” value [1, 6]?
A: no significant improvement

Q: What about the “average loss of RGC cells” value [3] of the same compound?
A: 60.0%

Q: What about the “protection on retinal ganglion cells” value [3] of the same compound?
A: weak protection

Q: What about the “Δ Global mean thickness of retinal nerve fiber layer (RNFL)” value (shortened to “Δ Global mean thickness”) ([4]; OD (I/R injury), Day 35) of the same compound?
A: −41 ± 8 μm

Q: What about the “Δ Global mean thickness” value ([4]; OD (I/R injury), Day 63) of the same compound?
A: −46 ± 3 μm

Q: And the “Δ Global mean thickness” value [4, 7]?
A: −2 ± 1 μm

Q: And the “Δ Global mean thickness” value [4, 8]?
A: 2 ± 1 μm

Q: And the “Variation value, sensory nerve conduction velocity, Mean ± SD” value [2]?
A: 0.4 ± 1.3 m/s

Q: What about the “Administration D58, sensory nerve conduction velocity, Mean ± SD” value [2] of the same compound?
A: 39.0 ± 5.1 m/s

Q: What about the “Baseline value, sensory nerve conduction velocity, Mean ± SD” value [2] of the same compound?
A: 38.6 ± 4.9 m/s

Q: What about the “Variation value, sensory nerve conduction velocity” value ([2]; left median nerve (abnormal)) of the same compound?
A: −1.9 m/s and 0.8 m/s

Q: What about the “Administration D58, sensory nerve conduction velocity” value ([2]; left median nerve (abnormal)) of the same compound?
A: 42.1 m/s and 40.0 m/s

Q: And the “Baseline value, sensory nerve conduction velocity” value ([2]; left median nerve (abnormal))?
A: 44.0 m/s and 39.2 m/s

Q: What about the “Variation value, sensory nerve conduction velocity” value ([2]; left sural nerve (abnormal)) of the same compound?
A: −0.3 m/s and 1.9 m/s

Q: And the “Baseline value, sensory nerve conduction velocity” value ([2]; left sural nerve (abnormal))?
A: 40.5 m/s and 38.5 m/s

Q: What about the “Variation value, sensory nerve conduction velocity” value ([2]; right median nerve (abnormal)) of the same compound?
A: −0.6 m/s

Q: And the “Administration D58, sensory nerve conduction velocity” value ([2]; right median nerve (abnormal))?
A: 25.6 m/s

Q: And the “Baseline value, sensory nerve conduction velocity” value ([2]; right median nerve (abnormal))?
A: 26.2 m/s

Q: And the “Variation value, sensory nerve conduction velocity” value ([2]; right sural nerve (abnormal))?
A: −0.4 m/s and 2.1 m/s and 1.4 m/s

Q: What about the “Baseline value, sensory nerve conduction velocity” value ([2]; right sural nerve (abnormal)) of the same compound?
A: 40.0 m/s and 39.0 m/s and 41.2 m/s

Q: What about the “improvement in abnormal sensory nerve conduction velocity compared with the placebo group” value [2, 6] of the same compound?
A: no significant improvement

Q: And the “Δ mean thickness of the 9-room retinal EDTRS area” value (“Δ mean thickness” below) ([5]; OD (IR injury), Day 7)?
A: −50 ± 14 μm

Q: What about the “Δ mean thickness” value ([5]; OD (IR injury), Day 21) of the same compound?
A: −79 ± 15 μm

Q: And the “Δ mean thickness” value ([5]; OD (IR injury), Day 35)?
A: −85 ± 14 μm

Q: And the “Δ mean thickness” value ([5]; OD (IR injury), Day 63)?
A: −88 ± 18 μm

Q: What about the “Δ mean thickness” value [5, 9] of the same compound?
A: −3 ± 5 μm

Q: And the “Δ mean thickness” value [5, 10]?
A: −6 ± 3 μm

Q: And the “Δ mean thickness” value [5, 7]?
A: −2 ± 4 μm

Q: And the “Δ mean thickness” value [5, 8]?
A: 3 ± 3 μm

Q: With COc1cc2nc(N3CCN(C(=O)C4COc5ccccc5O4)CC3)nc(N)c2cc1OC (racemic) [DOX, (RS)-2-[4-(2,3-Dihydro-1,4-benzodioxine-2-carbonyl)piperazin-1-yl]-6,7-dimethoxyquinazolin-4-amine] as the compound, how does the “average loss of RGC cells” value [3] read?
A: 63.9±14.1%

Q: What about the “protection on retinal ganglion cells” value [3] of the same compound?
A: weak protection

Q: And the “Δ Global mean thickness” value ([4]; OD (I/R injury), Day 35)?
A: −14 ± 4 μm

Q: And the “Δ Global mean thickness” value ([4]; OD (I/R injury), Day 63)?
A: −21 ± 7 μm

Q: What about the “Δ Global mean thickness” value [4, 7] of the same compound?
A: 1 ± 2 μm

Q: And the “Δ Global mean thickness” value [4, 8]?
A: 1 ± 1 μm

Q: What about the “Δ mean thickness” value ([5]; OD (IR injury), Day 7) of the same compound?
A: −26 ± 0 μm

Q: What about the “Δ mean thickness” value ([5]; OD (IR injury), Day 21) of the same compound?
A: −48 ± 7 μm

Q: And the “Δ mean thickness” value ([5]; OD (IR injury), Day 35)?
A: −54 ± 10 μm

Q: What about the “Δ mean thickness” value ([5]; OD (IR injury), Day 63) of the same compound?
A: −58 ± 9 μm

Q: What about the “Δ mean thickness” value [5, 9] of the same compound?
A: −5 ± 4 μm

Q: What about the “Δ mean thickness” value [5, 10] of the same compound?
A: −3 ± 4 μm

Q: What about the “Δ mean thickness” value [5, 7] of the same compound?
A: −3 ± 3 μm

Q: What about the “Δ mean thickness” value [5, 8] of the same compound?
A: −3 ± 5 μm
